According to ChEMBL document CHEMBL3797029, “Purinylpyridinylamino-based DFG-in/αC-helix-out B-Raf inhibitors: Applying mutant versus wild-type B-Raf selectivity indices for compound profiling” (Bioorg Med Chem, 2016):

What was measured:
Set-up in all cases: scale not given: the % may be the effect or the level left
[1] = test system: cAMP-dependent protein kinase catalytic subunit alpha; assay: Inhibition of partial length wild type human PKACalpha expressed in bacterial system assessed as enzyme activity at 1 uM relative to control
[2] = molecular target: Angiopoietin-1 receptor (Homo sapiens) (UniProt Q02763); assay: Inhibition of partial length wild type human TIE2 expressed in bacterial system assessed as enzyme activity at 1 uM relative to control
Angiopoietin-1 receptor (Homo sapiens), sequence (Q02763 whole entry): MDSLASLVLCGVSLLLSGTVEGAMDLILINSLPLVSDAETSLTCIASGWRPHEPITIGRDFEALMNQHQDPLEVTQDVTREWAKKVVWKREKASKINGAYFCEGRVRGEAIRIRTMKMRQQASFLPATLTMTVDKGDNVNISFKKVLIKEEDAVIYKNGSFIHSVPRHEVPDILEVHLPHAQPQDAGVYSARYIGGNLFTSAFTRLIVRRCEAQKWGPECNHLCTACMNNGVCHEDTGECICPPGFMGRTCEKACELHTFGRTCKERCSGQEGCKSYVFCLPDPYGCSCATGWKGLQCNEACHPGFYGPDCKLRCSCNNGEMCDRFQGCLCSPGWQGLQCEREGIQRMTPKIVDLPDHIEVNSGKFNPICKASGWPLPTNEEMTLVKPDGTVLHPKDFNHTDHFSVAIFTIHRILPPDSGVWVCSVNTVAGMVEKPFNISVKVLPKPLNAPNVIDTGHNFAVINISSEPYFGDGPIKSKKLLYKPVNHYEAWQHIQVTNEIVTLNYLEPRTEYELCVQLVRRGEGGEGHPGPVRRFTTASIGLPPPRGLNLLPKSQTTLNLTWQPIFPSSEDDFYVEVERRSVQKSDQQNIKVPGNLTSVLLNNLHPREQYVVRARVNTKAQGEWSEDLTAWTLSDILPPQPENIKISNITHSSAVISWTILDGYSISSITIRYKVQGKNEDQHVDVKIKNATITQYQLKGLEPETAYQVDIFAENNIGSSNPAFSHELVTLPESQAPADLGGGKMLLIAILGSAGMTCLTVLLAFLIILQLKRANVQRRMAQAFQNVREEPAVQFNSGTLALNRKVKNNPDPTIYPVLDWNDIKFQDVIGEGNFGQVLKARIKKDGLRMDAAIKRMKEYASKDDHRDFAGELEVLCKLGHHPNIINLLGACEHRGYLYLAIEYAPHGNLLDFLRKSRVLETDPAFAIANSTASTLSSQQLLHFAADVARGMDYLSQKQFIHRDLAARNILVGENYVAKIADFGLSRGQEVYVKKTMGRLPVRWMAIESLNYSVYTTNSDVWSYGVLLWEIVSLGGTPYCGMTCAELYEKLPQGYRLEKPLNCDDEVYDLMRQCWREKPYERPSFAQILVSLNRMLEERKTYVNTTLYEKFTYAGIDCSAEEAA

[3] = molecular target: Ribosomal protein S6 kinase alpha-1 (Homo sapiens) (UniProt Q15418); assay: Inhibition of partial length wild type human RSK1(Kin.Dom.1-N-terminal) expressed in bacterial system assessed as enzyme activity at 1 uM relative to control
Ribosomal protein S6 kinase alpha-1 (Homo sapiens), sequence (Q15418 whole entry, the tested form may be a part): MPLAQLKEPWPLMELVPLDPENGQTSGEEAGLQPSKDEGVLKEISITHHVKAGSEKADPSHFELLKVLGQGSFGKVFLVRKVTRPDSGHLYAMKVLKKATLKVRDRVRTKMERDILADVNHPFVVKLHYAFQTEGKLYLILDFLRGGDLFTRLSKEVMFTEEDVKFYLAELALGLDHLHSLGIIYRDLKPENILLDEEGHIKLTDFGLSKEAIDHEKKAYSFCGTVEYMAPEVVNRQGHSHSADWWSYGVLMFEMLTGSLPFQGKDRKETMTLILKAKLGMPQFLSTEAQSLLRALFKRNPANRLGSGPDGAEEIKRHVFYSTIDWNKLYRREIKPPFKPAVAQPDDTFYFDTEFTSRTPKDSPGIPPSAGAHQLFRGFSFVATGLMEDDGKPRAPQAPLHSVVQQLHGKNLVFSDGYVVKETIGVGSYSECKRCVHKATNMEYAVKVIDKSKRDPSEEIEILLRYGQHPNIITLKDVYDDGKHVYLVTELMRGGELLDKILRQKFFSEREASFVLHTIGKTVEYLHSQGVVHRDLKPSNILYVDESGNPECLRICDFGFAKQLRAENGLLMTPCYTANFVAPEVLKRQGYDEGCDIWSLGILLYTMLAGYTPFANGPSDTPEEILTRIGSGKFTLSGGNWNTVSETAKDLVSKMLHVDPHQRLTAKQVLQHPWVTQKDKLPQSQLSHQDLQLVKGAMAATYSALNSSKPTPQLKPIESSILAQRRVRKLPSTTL

[4] = molecular target: Tyrosine-protein kinase JAK2 (Homo sapiens) (UniProt O60674); assay: Inhibition of partial length wild type human JAK2 (catalytic JH1 domain) expressed in mammalian system assessed as enzyme activity at 1 uM relative to control
Tyrosine-protein kinase JAK2 (Homo sapiens), sequence (O60674 whole entry, the tested form may be a part): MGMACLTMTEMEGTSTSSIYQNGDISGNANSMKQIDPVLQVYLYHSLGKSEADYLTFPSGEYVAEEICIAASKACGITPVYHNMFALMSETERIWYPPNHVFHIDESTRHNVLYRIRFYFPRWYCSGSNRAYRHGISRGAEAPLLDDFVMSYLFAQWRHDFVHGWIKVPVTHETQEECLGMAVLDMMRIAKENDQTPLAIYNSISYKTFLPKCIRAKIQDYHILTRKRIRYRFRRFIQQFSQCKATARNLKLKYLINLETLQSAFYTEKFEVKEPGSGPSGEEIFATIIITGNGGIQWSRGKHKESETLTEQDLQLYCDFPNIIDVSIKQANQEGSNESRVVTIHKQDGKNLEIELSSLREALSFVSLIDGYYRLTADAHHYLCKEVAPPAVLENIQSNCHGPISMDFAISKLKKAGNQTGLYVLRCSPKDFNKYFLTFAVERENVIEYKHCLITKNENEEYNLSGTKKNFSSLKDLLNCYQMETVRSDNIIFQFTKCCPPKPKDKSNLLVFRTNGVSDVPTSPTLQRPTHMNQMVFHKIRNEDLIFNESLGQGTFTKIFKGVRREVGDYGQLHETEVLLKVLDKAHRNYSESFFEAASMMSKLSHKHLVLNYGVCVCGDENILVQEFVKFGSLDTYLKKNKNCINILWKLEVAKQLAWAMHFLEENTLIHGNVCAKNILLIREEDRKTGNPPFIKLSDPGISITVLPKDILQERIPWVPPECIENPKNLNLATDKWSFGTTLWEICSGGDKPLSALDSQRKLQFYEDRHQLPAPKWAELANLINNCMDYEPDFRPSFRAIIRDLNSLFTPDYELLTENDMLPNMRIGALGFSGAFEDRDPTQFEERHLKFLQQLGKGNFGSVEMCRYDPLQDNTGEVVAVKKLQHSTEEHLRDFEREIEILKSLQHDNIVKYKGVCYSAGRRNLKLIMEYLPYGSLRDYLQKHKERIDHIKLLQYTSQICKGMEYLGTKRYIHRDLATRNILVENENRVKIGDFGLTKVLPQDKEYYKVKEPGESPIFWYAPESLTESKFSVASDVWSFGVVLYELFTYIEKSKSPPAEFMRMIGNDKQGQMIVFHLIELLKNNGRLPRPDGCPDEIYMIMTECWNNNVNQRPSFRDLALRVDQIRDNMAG

[5] = molecular target: Serine/threonine-protein kinase OSR1 (Homo sapiens) (UniProt O95747); assay: Inhibition of full length wild type human OSR1 expressed in mammalian system assessed as enzyme activity at 1 uM relative to control
Serine/threonine-protein kinase OSR1 (Homo sapiens), sequence (O95747 2-527 limits assumed): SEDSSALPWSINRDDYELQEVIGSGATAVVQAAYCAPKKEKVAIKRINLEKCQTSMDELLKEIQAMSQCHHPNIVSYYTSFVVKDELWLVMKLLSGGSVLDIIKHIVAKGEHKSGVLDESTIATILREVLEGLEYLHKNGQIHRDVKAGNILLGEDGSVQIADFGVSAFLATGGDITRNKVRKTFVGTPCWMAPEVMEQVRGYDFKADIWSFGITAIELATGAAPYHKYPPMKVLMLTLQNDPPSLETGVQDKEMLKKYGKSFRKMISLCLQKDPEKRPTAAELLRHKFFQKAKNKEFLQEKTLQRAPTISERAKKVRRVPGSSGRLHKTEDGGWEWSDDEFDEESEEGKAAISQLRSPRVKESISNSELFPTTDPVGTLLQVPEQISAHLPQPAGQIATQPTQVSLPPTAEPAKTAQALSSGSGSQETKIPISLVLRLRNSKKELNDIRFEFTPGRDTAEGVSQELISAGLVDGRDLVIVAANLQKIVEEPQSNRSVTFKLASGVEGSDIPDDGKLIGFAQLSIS

[6] = molecular target: Proto-oncogene tyrosine-protein kinase Src (Homo sapiens) (UniProt P12931); assay: Inhibition of partial length wild type human SRC expressed in bacterial system assessed as enzyme activity at 1 uM relative to control
[7] = molecular target: Cyclin-dependent kinase 8 (Homo sapiens) (UniProt P49336); assay: Inhibition of partial length wild type human CDK8 expressed in bacterial system assessed as enzyme activity at 1 uM relative to control
[8] = molecular target: Tyrosine-protein kinase ABL1 (Homo sapiens) (UniProt P00519); assay: Inhibition of partial length wild type phosphorylated human ABL1 expressed in mammalian system assessed as enzyme activity at 1 uM relative to control
Tyrosine-protein kinase ABL1 (Homo sapiens), sequence (P00519 whole entry): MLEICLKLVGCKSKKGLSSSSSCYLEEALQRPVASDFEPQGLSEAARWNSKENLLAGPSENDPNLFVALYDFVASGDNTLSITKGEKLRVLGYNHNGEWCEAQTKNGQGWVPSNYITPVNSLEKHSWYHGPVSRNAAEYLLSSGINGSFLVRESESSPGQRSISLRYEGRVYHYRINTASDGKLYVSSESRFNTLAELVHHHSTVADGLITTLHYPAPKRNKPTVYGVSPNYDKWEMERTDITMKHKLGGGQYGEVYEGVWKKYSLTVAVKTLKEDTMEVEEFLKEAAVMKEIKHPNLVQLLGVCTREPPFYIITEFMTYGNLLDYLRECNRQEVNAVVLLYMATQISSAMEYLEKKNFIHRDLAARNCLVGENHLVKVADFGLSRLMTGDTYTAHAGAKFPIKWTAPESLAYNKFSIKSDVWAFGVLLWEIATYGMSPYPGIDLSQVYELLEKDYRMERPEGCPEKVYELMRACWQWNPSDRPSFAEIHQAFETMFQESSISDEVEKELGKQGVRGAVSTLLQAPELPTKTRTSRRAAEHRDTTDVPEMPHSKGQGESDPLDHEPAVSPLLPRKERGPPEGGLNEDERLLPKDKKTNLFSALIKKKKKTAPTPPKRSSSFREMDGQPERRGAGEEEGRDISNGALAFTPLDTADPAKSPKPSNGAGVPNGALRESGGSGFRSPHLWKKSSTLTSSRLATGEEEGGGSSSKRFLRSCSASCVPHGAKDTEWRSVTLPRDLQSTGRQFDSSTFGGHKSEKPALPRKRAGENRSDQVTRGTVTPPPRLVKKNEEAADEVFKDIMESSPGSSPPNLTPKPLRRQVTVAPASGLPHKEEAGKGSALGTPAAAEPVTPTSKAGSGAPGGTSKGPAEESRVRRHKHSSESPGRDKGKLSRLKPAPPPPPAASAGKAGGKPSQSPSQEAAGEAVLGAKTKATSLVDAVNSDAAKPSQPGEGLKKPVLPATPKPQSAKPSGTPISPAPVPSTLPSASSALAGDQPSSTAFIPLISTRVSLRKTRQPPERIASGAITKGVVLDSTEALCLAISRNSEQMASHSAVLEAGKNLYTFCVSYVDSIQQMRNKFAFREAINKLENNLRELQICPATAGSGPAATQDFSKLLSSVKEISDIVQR

CN(C)S(=O)(=O)Nc1ccc(F)c(Nc2ncccc2-c2ncnc3[nH]cnc23)c1F
Activity [1]: 94% | Activity [2]: 63% | Activity [3]: 94% | Activity [4]: 100% | Activity [5]: 88% | Activity [6]: 100% | Activity [7]: 85% | Activity [8]: 100%
